According to US10175256B2, “Compositions and methods utilizing lysophosphatidylcholine scaffolds” (National University Of Singapore, priority 2013, dated 2019):
Several values for one entry are separate records, joined by “and”; a condition that tells them apart may be missing. Identical values can stand only once.

Experiments:
Mfsd2a = target: T1, Mfsd2a (Mus musculus, UniProt Q9DA75); experiment: Competition transport assay with LPC-[3H]palmitate as ligand; format: cell-based; set-up: expressed in transfected cells; host or cells: HEK293; conditions: 25 μM LPC-[3H]palmitate; for competition for transport/uptake of LPC-[3H]palmitate: 10-fold molar excess (250 μM) competitor, 30 mins (PAF 15 mins)
T1 sequence (Q9DA75 1-534): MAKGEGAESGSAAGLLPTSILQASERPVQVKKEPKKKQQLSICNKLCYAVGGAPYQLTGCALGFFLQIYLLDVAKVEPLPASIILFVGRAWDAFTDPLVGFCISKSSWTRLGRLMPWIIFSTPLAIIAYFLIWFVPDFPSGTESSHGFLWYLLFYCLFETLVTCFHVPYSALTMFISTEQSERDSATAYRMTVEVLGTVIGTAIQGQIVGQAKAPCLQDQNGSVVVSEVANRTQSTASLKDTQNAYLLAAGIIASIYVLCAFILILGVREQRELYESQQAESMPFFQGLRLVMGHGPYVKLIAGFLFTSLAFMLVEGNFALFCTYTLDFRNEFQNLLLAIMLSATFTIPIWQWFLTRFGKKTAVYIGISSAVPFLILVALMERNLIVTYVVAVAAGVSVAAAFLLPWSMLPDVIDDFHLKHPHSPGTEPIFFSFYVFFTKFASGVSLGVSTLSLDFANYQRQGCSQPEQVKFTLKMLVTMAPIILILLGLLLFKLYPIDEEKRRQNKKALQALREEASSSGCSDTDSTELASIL
Experimental: Briefly, 24 h post transfection of HEK293 cells with pcDNA3.1Mfsd2a (WT), pcDNA3.1Mfsd2aD92A (D92A), pcDNA3.1Mfsd2aD96A, or pcDNA3.1 (mock) plasmids were washed once with serum-free DMEM medium before addition of a mixture of 25 μM radiolabeled LPC-palmitate and 250 μM cold competitors, which were dissolved in 12% BSA. Total BSA concentration was kept constant in samples with or without cold competitors. Assays were performed at 37° C. for 30 mins. Competition assays with other LPC analogs such as foscholine detergents, and PAF were performed under the same conditions except for 15 mins. The reduced reaction time was necessary in order to limit potential negative effects of detergents and bioactive lipids on cell survival. All assays were performed in 12 well-plates with triplicates and at 37° C.
We next sought to determine ligand specificity and the chemical features of the LPC ligands that are required for transport by Mfsd2a.

mouse Mfsd2a [1] = experiment: Cell-based free fatty acid transport/uptake in Mfsd2a expressing HEK293 cells (mass spectrometry, TLC; Table 1); conditions: MS, replicate columns; for Amount of each lipid species normalized to internal standard, mol percent in total phospholipid analysed / Amount of lipid species, mol percent in total phospholipid analysed: mock HEK293 cells
Experimental: (§1) FIG. 12. […] Std: free [^14C]-DHA. b. TLC analysis of phospholipids and neutral lipids of HEK293 cells transfected with mouse Mfsd2a and mutants after overnight incubation with 100 μM [^14C]-oleate. TLC protocol used was described in Methods. PC: phosphatidylcholine, PE: phosphatidylethanolamine, TAG: triglyceride, CE: cholesteryl ester.
(§2) For tissue lipid analysis, brain, liver, and heart of female WT and KO mice with age of 7-8 weeks born to HET mothers, and brains from e18.5 embryos were collected and immediately frozen with liquid nitrogen until extraction. Lipid extraction was followed by chloroform/methanol method. For cell-based free fatty acid transport, lipids from HEK293 cells expressing mouse Mfsd2a and mock controls after overnight treatment with 100 μM docosahexaenoic, arachidonic, eicosapentaenoic, alpha-linolenic, linoleic, oleic, palmitic acids in BSA complex were extracted using HIP buffer (hexane:iso-propanol 3:2, per volume) and dried under N2 gas. Phospholipid species were measured by high performance liquid chromatography (HPLC) 1100 system (Agilent) coupled with an Triple Quadrupole/Ion Trap mass spectrometer (4000Qtrap, Applied Biosystem). Levels of individual phospholipid species were analyzed as described previously and quantified using spiked internal standards that includes PC-14:0/14:0, PE-14:0/14:0, PS-14:0/14:0 (Avanti Polar Lipids, Alabaster, Ala., USA), and dioctanoyl PI (Echelon Biosciences, Inc., Salt Lake City, Utah, USA).

mouse Mfsd2a [2] = target: T2, mouse Mfsd2a (Mus musculus, UniProt Q9DA75); experiment: as above; conditions: replicate columns; for Amount of lipid species, mol percent in total phospholipid analysed / Amount of each lipid species normalized to internal standard, mol percent in total phospholipid analysed: Mfsd2a expressing HEK293 cells
T2 construct: expressed in transfected cells; host or cells: HEK293
T2 sequence (Q9DA75 1-534): T1 sequence (Q9DA75 1-534)
Experimental: as §1, §2

[3] = mock HEK293 cells incubated with 100 uM Arachidonic fatty acid/BSA complex overnight
[4] = mock HEK293 cells incubated with 100 uM Eicosapentaenoic fatty acid/BSA complex overnight
[5] = 100 uM Docosahexaenoic acid/BSA complex overnight
[6] = 100 uM Linoleic fatty acid/BSA complex overnight
[7] = 100 uM Oleic fatty acid/BSA complex overnight
[8] = Mfsd2a expressing HEK293 cells incubated with 100 uM Arachidonic fatty acid/BSA complex overnight, MS
[9] = Mfsd2a expressing HEK293 cells incubated with 100 uM Eicosapentaenoic fatty acid/BSA complex overnight, MS
[10] = 100 uM Alpha-linolenic fatty acid/BSA complex overnight
[11] = 100 uM Docosahexaenoic acid/BSA complex overnight, MS
[12] = 100 uM Linoleic fatty acid/BSA complex overnight, MS
[13] = 100 uM Oleic fatty acid/BSA complex overnight, MS
[14] = 100 uM Eicosapentaenoic acid/BSA complex overnight
[15] = 100 uM Eicosapentaenoic acid/BSA complex overnight, MS

Row | Compound | competition for transport/uptake of LPC-[3H]palmitate (Mfsd2a) | Amount of each lipid species, mol percent in total phospholipid analysed (mouse Mfsd2a [1]; [3]) | Amount of each lipid species normalized to internal standard, mol percent in total phospholipid analysed (mouse Mfsd2a [1]; [5]) | Amount of lipid species, mol percent in total phospholipid analysed (mouse Mfsd2a [1]; [7]) | Amount of each lipid species, mol percent in total phospholipid analysed (mouse Mfsd2a [2]; [8]) | Amount of lipid species, mol percent in total phospholipid analysed (mouse Mfsd2a [2]; [10]) | Amount of each lipid species normalized to internal standard, mol percent in total phospholipid analysed (mouse Mfsd2a [2]; [11]) | Amount of lipid species, mol percent in total phospholipid analysed (mouse Mfsd2a [2]; [13]) | other results
1 | CCCCCCCCCCCCCCCCOC[C@@H](O)COP(=O)([O-])OCC[N+](C)(C)C [lysoplatelet activating factor] | strong competitors |  |  |  |  |  |  |  | 
2 | C[N+](C)(C)CCOP(=O)([O-])OC[C@H](O)CO [glycerophosphatidylcholine, alpha-glycerylphosphocholine] | not a competitor |  |  |  |  |  |  |  | 
3 | platelet activating factor | strong competitors |  |  |  |  |  |  |  | competition for transport/uptake of LPC-[3H]palmitate (Mfsd2a; listed as PAF): strong competition
4 | CCCCCCCCCCCCOP(=O)([O-])OCC[N+](C)(C)C [Fos-12] |  |  |  |  |  |  |  |  | competition of foscholines with LPC-[3H]palmitate (Mfsd2a; 250 μM competitor, 15 mins): did not compete
5 | CCCCCCCCCCCCCCCCCC(=O)OC[C@@H](O)COP(=O)(O)O[C@@H]1[C@H](O)[C@H](O)[C@@H](O)[C@H](O)[C@H]1O [LPI18:0] |  | 0.03307 mol percent and 0.03421 mol percent and 0.02228 mol percent | 0.0354 mol percent and 0.03721 mol percent and 0.03756 mol percent | 0.02649 mol percent and 0.03117 mol percent and 0.0307 mol percent | 0.02508 mol percent and 0.03053 mol percent and 0.02667 mol percent and 0.03031 mol percent | 0.03202 mol percent and 0.03143 mol percent and 0.03738 mol percent and 0.03614 mol percent | 0.03395 mol percent and 0.02821 mol percent and 0.03136 mol percent and 0.02514 mol percent | 0.02837 mol percent and 0.02931 mol percent and 0.02721 mol percent and 0.02894 mol percent | Amount of each lipid species, mol percent in total phospholipid analysed (mouse Mfsd2a [1]; [4]): 0.03631 mol percent and 0.04031 mol percent and 0.03846 mol percent; Amount of lipid species, mol percent in total phospholipid analysed (mouse Mfsd2a [1]; [6]): 0.03365 mol percent and 0.03811 mol percent and 0.02692 mol percent; Amount of each lipid species, mol percent in total phospholipid analysed (mouse Mfsd2a [2]; [9]): 0.02916 mol percent and 0.03081 mol percent and 0.03115 mol percent and 0.03571 mol percent; Amount of lipid species, mol percent in total phospholipid analysed (mouse Mfsd2a [2]; [12]): 0.03216 mol percent and 0.02682 mol percent and 0.02809 mol percent and 0.04343 mol percent
6 | CCCCCCCCCCCCCCCCCCOC[C@@H](O)COP(=O)([O-])OCC[N+](C)(C)C [LysoPC18:0e] |  | 0.00137 mol percent and 0.002231 mol percent and 0.001637 mol percent | 0.002177 mol percent and 0.002156 mol percent and 0.002215 mol percent | 0.001802 mol percent and 0.00157 mol percent and 0.001773 mol percent | 0.001403 mol percent and 0.001832 mol percent and 0.001957 mol percent and 0.00156 mol percent | 0.001528 mol percent and 0.001007 mol percent and 0.001383 mol percent and 0.001468 mol percent | 0.002316 mol percent and 0.001944 mol percent and 0.002079 mol percent and 0.002217 mol percent | 0.002105 mol percent and 0.002254 mol percent and 0.001084 mol percent and 0.001841 mol percent | Amount of each lipid species normalized to internal standard, mol percent in total phospholipid analysed (mouse Mfsd2a [1]; [14]): 0.001609 mol percent and 0.002109 mol percent and 0.001671 mol percent; Amount of lipid species, mol percent in total phospholipid analysed (mouse Mfsd2a [2]; [6]): 0.00128 mol percent and 0.001885 mol percent and 0.001443 mol percent and 0.001726 mol percent; Amount of each lipid species normalized to internal standard, mol percent in total phospholipid analysed (mouse Mfsd2a [2]; [15]): 0.002414 mol percent and 0.001699 mol percent and 0.001986 mol percent and 0.001832 mol percent
7 | PE38:5 |  | 1.648 mol percent and 1.509 mol percent and 1.4 mol percent | 0.6844 mol percent and 0.8632 mol percent and 0.5129 mol percent | 0.809 mol percent and 0.6822 mol percent and 0.456 mol percent | 1.517 mol percent and 1.746 mol percent and 1.538 mol percent and 1.292 mol percent | 2.013 mol percent and 1.902 mol percent and 1.704 mol percent and 1.689 mol percent | 0.6996 mol percent and 0.7565 mol percent and 0.8996 mol percent and 0.9147 mol percent | 0.6441 mol percent and 0.6477 mol percent and 0.57 mol percent and 0.5862 mol percent | Amount of each lipid species, mol percent in total phospholipid analysed (mouse Mfsd2a [1]; [4]): 1.214 mol percent and 0.8982 mol percent and 0.9456 mol percent; Amount of lipid species, mol percent in total phospholipid analysed (mouse Mfsd2a [1]; [6]): 0.9188 mol percent and 0.8836 mol percent and 0.7914 mol percent; Amount of each lipid species, mol percent in total phospholipid analysed (mouse Mfsd2a [2]; [9]): 0.8525 mol percent and 0.7862 mol percent and 1.249 mol percent and 0.8033 mol percent; Amount of lipid species, mol percent in total phospholipid analysed (mouse Mfsd2a [2]; [12]): 0.714 mol percent and 1.007 mol percent and 0.7471 mol percent and 0.7035 mol percent
8 | CCCCCCCCCCCCCC/C=C\OC[C@@H](O)COP(=O)(O)OCCN [Lyso PE16:0p] |  |  | 2.843 mol percent and 2.772 mol percent and 2.42 mol percent | 3.062 mol percent and 2.456 mol percent and 2.052 mol percent |  | 3.296 mol percent and 3.844 mol percent and 2.809 mol percent and 2.876 mol percent | 3.182 mol percent and 3.1158 mol percent and 3.231 mol percent and 3.697 mol percent | 2.254 mol percent and 2.591 mol percent and 2.664 mol percent and 2.476 mol percent | Amount of each lipid species normalized to internal standard, mol percent in total phospholipid analysed (mouse Mfsd2a [1]; [14]): 3.984 mol percent and 3.09 mol percent and 2.343 mol percent; Amount of lipid species, mol percent in total phospholipid analysed (mouse Mfsd2a [2]; [6]): 1.997 mol percent and 3.121 mol percent and 2.462 mol percent and 2.098 mol percent; Amount of each lipid species normalized to internal standard, mol percent in total phospholipid analysed (mouse Mfsd2a [2]; [15]): 2.495 mol percent and 3.134 mol percent and 3.766 mol percent and 2.379 mol percent
9 | CCCCCCCCCCCCCC/C=C\OC[C@@H](O)COP(=O)(O)OCCN [LysoPE16:0p] |  | 3.439 mol percent and 2.895 mol percent and 2.928 mol percent |  |  | 2.79 mol percent and 2.681 mol percent and 2.307 mol percent and 2.64 mol percent |  |  |  | 
